The values below come from ChEMBL document CHEMBL5725356, “Anti-fibrotic pyridinones” (2017).

Some results are limits rather than exact numbers.

The experiment in a line: ET-1 Assay: Fibroblasts (primary human lung and dermal, HFL-1, 3T3 etc) are seeded in 96-well plates at ~15000 cells/well and serum starved for 0-48 hours. After media exchange, compounds serially diluted in DMSO are added to the cells. After a brief incubation of ~30 min, stimulants (TGFb, serum, LPA etc) are added followed by further incubation for 16-48 hours. Media is then harvested and stored frozen in plate format for later endothelin-1 (ET-1) determination by ELISA. Toxicity measurements are made using the ATPlite kit (Perkin-Elmer). ET-1 is quantified using an ELISA kit (R&D Systems). The amount of ET-1 produced in the assay wells are back-calculated using the ELISA standard. The ability of a compound to inhibit ET-1 production is typically analyzed by fitting dose-response curves to a 4-parameter logistic function to obtain an EC50 value. Conditions: HFL1.
Take `O=c1ccc(C(F)(F)F)cn1-c1cccc(F)c1`: the EC50 is above 200 µM.

As for `Cc1cc(=O)n(-c2ccc(C(F)(F)F)cc2)cc1-c1cnn(C)c1`, the EC50 result was “in the range around 125 µM”.

As for `Cc1cc(=O)n(-c2ccc(OC(F)(F)F)cc2)cc1-c1ccc2ocnc2c1`, the EC50 is below 50 µM.

`CC(C)c1cc(=O)n(-c2ccc(OC(F)(F)F)cc2)cc1-c1cnn(C)c1`: the concentration for a half-maximal effect (EC50) result is “in the range around 125 µM”.

Turning to `Cc1cc(=O)n(-c2cccc(OC(F)(F)F)c2)cc1-c1cnn(C)c1`, the EC50 is above 200 µM.

With `Cn1cc(-c2cn(-c3ccc(OC(F)(F)F)cc3)c(=O)cc2C(F)(F)F)cn1`, the EC50 is above 200 µM.

For `Cc1cc(=O)n(-c2ccc(F)cc2)cc1-c1ccc(OC(F)(F)F)cc1`, the EC50 result is “in the range around 125 µM”.

In the case of `Cc1cc(=O)n(-c2cccc3c2OCO3)cc1-c1cnn(C)c1`, the EC50 is above 200 µM.

As to `Cc1cc(=O)n(-c2ccc3c(c2)OCCO3)cc1-c1cnn(C)c1`, the concentration for a half-maximal effect (EC50) was above 200 µM.

`Cc1cc(=O)n(-c2ccc(OC(F)(F)F)cc2)cc1-c1ccc2ncsc2c1`: the EC50 entry is “in the range around 125 µM”.

`COc1cccc(-n2cc(C(F)(F)F)ccc2=O)c1`: the EC50 was above 200 µM.

Consider `Cc1cc(=O)n(-c2ccc(OC(F)(F)F)cc2)cc1-c1ccc2nccn2c1`, for which the EC50 entry is “in the range around 125 µM”.

With `CC(C)Oc1ccc(-n2cc(Br)ccc2=O)cc1`, the EC50 was above 200 µM.

Take `O=c1ccc(C(F)(F)F)cn1-c1ccccc1Cl`: the EC50 is above 200 µM.

As to `Cc1cc(=O)n(-c2ccc3scnc3c2)cc1-c1cnn(C)c1`, the EC50 is above 200 µM.

Regarding `Cc1cc(=O)n(-c2ccc(OC(F)(F)F)cc2)cc1-c1ccc2c(c1)NC(=O)CO2`, the EC50 was below 50 µM.

Consider `Cc1cc(=O)n(-c2ccc(OC(F)(F)F)cc2)cc1-c1cnsc1`, for which the EC50 was above 200 µM.

As to `Cc1cc(=O)n(-c2ccc(OC(F)(F)F)cc2)cc1-c1ccnnc1`, the EC50 result is “in the range around 125 µM”.

Take `Cc1cc(=O)n(-c2ccc(OC(F)(F)F)cc2)cc1-c1cscn1`: the EC50 entry was “in the range around 125 µM”.

`Cc1cc(=O)n(-c2ccccc2F)cc1-c1cnn(C)c1`: the 50% effective concentration (EC50) is above 200 µM.

Consider `Cc1cc(=O)n(-c2cccc3c2OCCO3)cc1-c1cnn(C)c1`, for which the EC50 entry is “in the range around 125 µM”.

For the compound `Cc1cc(=O)n(-c2ccc(OC(F)(F)F)cc2)cc1-c1cccnc1`, the EC50 was above 200 µM.

As for `O=c1ccc(C(F)(F)F)cn1-c1ccc(OC(F)(F)F)cc1`, the EC50 was above 200 µM.

Take `CC(=O)Nc1cccc(-n2cc(C(F)(F)F)ccc2=O)c1`: the 50% effective concentration (EC50) is above 200 µM.

For `Cc1cc(=O)n(-c2ccc(OC(F)(F)F)cc2)cc1-c1c(C)nn(C)c1C`, the EC50 entry is “in the range around 125 µM”.

With `Cc1cc(=O)n(-c2ccc(OC(F)(F)F)cc2)cc1-c1ccc2cn(C)nc2c1`, the concentration giving a half-maximal response (EC50) result is “in the range around 125 µM”.

As to `O=c1ccc(Br)cn1-c1cccc(F)c1`, the EC50 was above 200 µM.

For `Cc1cc(=O)n(-c2ccc(OC(F)(F)F)cc2)cc1-c1ccc2nonc2c1`, the EC50 result was “in the range around 125 µM”.

As for `Cc1cc(=O)n(-c2ccc(OC(F)(F)F)cc2)cc1-c1cccc2ncsc12`, the EC50 is below 50 µM.

Take `CC(=O)Nc1cccc(-n2cc(Br)ccc2=O)c1`: the EC50 is above 200 µM.

With `O=c1ccc(C(F)(F)F)cn1-c1cncnc1`, the EC50 was above 200 µM.

Regarding `COc1cc(-n2cc(-c3cn[nH]c3)c(C)cc2=O)cc(OC)c1OC`, the EC50 was above 200 µM.

On to `CCc1cc(=O)n(-c2ccc(OC(F)(F)F)cc2)cc1-c1cnn(C)c1`, for which the EC50 entry is “in the range around 125 µM”.

For `Cc1cc(=O)n(-c2ccc(Cl)cc2C)cc1-c1cnn(C)c1`, the concentration giving a half-maximal response (EC50) result was “in the range around 125 µM”.

For `Cc1cc(=O)n(-c2ccc(OC(F)(F)F)cc2)cc1-c1nnn(C)n1`, the EC50 was above 200 µM.

On to `Cc1cc(=O)n(-c2ccc3c(c2)OCO3)cc1-c1cnn(C)c1`, for which the EC50 is above 200 µM.

As for `COc1cccc(-n2cc(Br)ccc2=O)c1`, the EC50 is above 200 µM.

In the case of `Cc1cc(=O)n(-c2ccc3ocnc3c2)cc1-c1cnn(C)c1`, the EC50 was above 200 µM.

For the compound `Cc1cc(=O)n(-c2ccc(OC(F)(F)F)cc2)cc1-n1ccnc1`, the EC50 is above 200 µM.

For `Cc1cc(=O)n(-c2ccc(OC(F)(F)F)cc2)cc1-c1cn[nH]c1`, the concentration giving a half-maximal response (EC50) was below 50 µM.

Regarding `CCOc1ccc(-n2cc(Br)ccc2=O)c(C)c1`, the EC50 was above 200 µM.

`Cc1cc(=O)n(-c2ccc(OC(F)(F)F)cc2)cc1-c1cccc2scnc12`: the EC50 was above 200 µM.

As for `O=c1ccc(Br)cn1-c1ccc(OC(F)(F)F)cc1`, the EC50 was above 200 µM.

Consider `Cc1cc(=O)n(-c2cccc(C(F)(F)F)c2)cc1-c1cnn(C)c1`, for which the EC50 is above 200 µM.

For `Cc1cc(=O)n(-c2ccc(OC(F)(F)F)cc2)cc1-c1ccnn1C`, the EC50 is above 200 µM.

As for `Cc1cc(=O)n(-c2ccc(OC(F)(F)F)cc2)cc1-c1nn[nH]n1`, the EC50 is above 200 µM.

`O=c1ccc(Br)cn1-c1cccc(C(F)(F)F)c1`: the EC50 is above 200 µM.

Turning to `Cc1cc(=O)n(-c2ccc(OC(F)(F)F)cc2)cc1-c1ccc(F)cc1`, the EC50 is above 200 µM.

In the case of `Cc1cc(=O)n(-c2ccccc2C)cc1-c1ccc(F)cc1`, the EC50 result was “in the range around 125 µM”.

`Cc1ccc(-n2cc(-c3ccc(F)cc3)c(C)cc2=O)cc1`: the EC50 result was “in the range around 125 µM”.

Take `Cc1cc(=O)n(-c2ccc(OC(C)C)cc2C)cc1-c1cnn(C)c1`: the EC50 is above 200 µM.

Turning to `Cc1cc(=O)n(-c2ccc(OC(F)(F)F)cc2)cc1-c1ccc2c(ccn2C)c1`, the EC50 is above 200 µM.

For `Cc1cc(=O)n(-c2ccc(OC(F)(F)F)cc2)cc1-c1ccc2scnc2c1`, the EC50 is below 50 µM.

`Cc1cc(=O)n(-c2ccc(OC(F)(F)F)cc2)cc1-c1ccc2c(c1)N(C)C(=O)CO2`: the EC50 was below 50 µM.

Consider `Cc1cc(=O)n(-c2ccc(OC(F)(F)F)cc2)cc1-c1nnnn1C`, for which the EC50 was above 200 µM.

Turning to `Cc1cc(=O)n(-c2ccc(OC(F)(F)F)cc2)cc1-c1ccc2c(c1)OC(F)(F)O2`, the concentration for a half-maximal effect (EC50) result was “in the range around 125 µM”.

On to `Cc1cc(=O)n(-c2ccc(OC(F)(F)F)cc2)cc1-c1ccc2c(c1)OC(C)(C)O2`, for which the concentration for a half-maximal effect (EC50) is above 200 µM.

Turning to `CC(=O)Nc1cccc(-n2cc(-c3cn[nH]c3)c(C)cc2=O)c1`, the concentration giving a half-maximal response (EC50) is above 200 µM.

Turning to `Cc1cc(=O)n(-c2ccc(OC(F)(F)F)cc2)cc1-c1cnc2nccn2c1`, the EC50 is above 200 µM.

For the compound `Cc1cc(=O)n(-c2ccc(OC(F)(F)F)cc2)cc1-c1cn(C)nc1C(F)(F)F`, the concentration for a half-maximal effect (EC50) entry is “in the range around 125 µM”.

For the compound `Cc1cc(=O)n(-c2ccc3[nH]cnc3c2)cc1-c1cnn(C)c1`, the EC50 is above 200 µM.

Consider `CCOc1ccc(-n2cc(-c3cn[nH]c3)c(C)cc2=O)c(C)c1`, for which the EC50 result was “in the range around 125 µM”.

Consider `CCOc1ccc(-n2cc(C(F)(F)F)ccc2=O)c(C)c1`, for which the EC50 entry is “in the range around 125 µM”.

Take `O=c1ccc(Br)cn1-c1ccc(F)cc1`: the EC50 was above 200 µM.

As to `Cc1cc(=O)n(-c2ccc(OC(F)(F)F)cc2)cc1-c1ccncc1`, the EC50 is above 200 µM.

Regarding `O=c1ccc(Br)cn1-c1ccc(Cl)cc1`, the EC50 was above 200 µM.

As for `COc1cc(-n2cc(-c3cnn(C)c3)c(C)cc2=O)cc(OC)c1OC`, the EC50 was above 200 µM.

Take `Cc1cc(=O)n(-c2ccc(OC(F)(F)F)cc2)cc1-c1ccc2ccn(C)c2c1`: the EC50 is below 50 µM.
